Measurements taken from ChEMBL document CHEMBL1146614, “High-affinity thrombin receptor (PAR-1) ligands: a new generation of indole-based peptide mimetic antagonists with a basic amine at the C-terminus” (Bioorg Med Chem Lett, 2003).

Key:
[1] = Ability to block thrombin (0.15 nM)-induced platelet aggregation; assay type: functional
[2] = target: T1, Proteinase-activated receptor 1 (Homo sapiens, UniProt P25116); assay: Ability to inhibit the binding of [3H]S-(p-F-Phe)-homoarginine-L-homoarginine-KY-NH2 to thrombin receptor on the membranes of CHRF-288-11 cells
T1 sequence (P25116 whole entry): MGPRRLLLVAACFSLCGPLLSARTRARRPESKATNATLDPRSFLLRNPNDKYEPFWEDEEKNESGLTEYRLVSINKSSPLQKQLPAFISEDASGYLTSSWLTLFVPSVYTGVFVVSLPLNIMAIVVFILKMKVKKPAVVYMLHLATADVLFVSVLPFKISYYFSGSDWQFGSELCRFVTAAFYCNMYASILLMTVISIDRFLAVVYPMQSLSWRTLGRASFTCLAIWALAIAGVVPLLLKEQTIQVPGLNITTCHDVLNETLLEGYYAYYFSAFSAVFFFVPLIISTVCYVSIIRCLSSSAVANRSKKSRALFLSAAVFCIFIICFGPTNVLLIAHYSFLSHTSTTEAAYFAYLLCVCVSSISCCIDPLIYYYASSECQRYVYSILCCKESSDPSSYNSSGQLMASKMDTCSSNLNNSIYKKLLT

[3] = Ability to block TRAP-6 (2 uM)-induced platelet aggregation; assay type: functional
[4] = Ability to block U-46,619 (0.3 uM)-induced platelet aggregation; inactive at a concentration of 50 uM; assay type: functional
[5] = Ability to block collagen (3 ug/mL)-induced platelet aggregation; assay type: functional
[6] = Ability to block U-46,619 (0.3 uM)-induced platelet aggregation; assay type: functional

| Structure (SMILES) | IC50 [1] | IC50 [2] | IC50 [3] | IC50 [4] | IC50 [5] | IC50 [6] |
| --- | --- | --- | --- | --- | --- | --- |
| NCC[C@H](NC(=O)[C@H](Cc1ccc(F)c(F)c1)NC(=O)Nc1cccc2c(CN3CCCC3)cn(Cc3c(Cl)cccc3Cl)c12)C(=O)NCCN1CCCC1 | 23000 nM | 22000 nM | 4300 nM | Not Active |  |  |
| NCC[C@H](NC(=O)[C@H](Cc1ccc(F)c(F)c1)NC(=O)Nc1ccc2c(CN3CCCC3)cn(Cc3c(Cl)cccc3Cl)c2c1)C(=O)NCCN1CCCC1 | 460 nM |  | 50 nM | Not Active |  |  |
| NCCCNC(=O)[C@H](CCN)NC(=O)[C@H](Cc1ccc(Cl)cc1)NC(=O)Nc1ccc2c(CN3CCCC3)cn(Cc3c(Cl)cccc3Cl)c2c1 | 200 nM | 430 nM | 50 nM |  | 11000 nM | 17300 nM |
| CSCC[C@H](NC(=O)[C@H](Cc1ccc(F)c(F)c1)NC(=O)Nc1ccc2c(CN3CCCC3)cn(Cc3c(Cl)cccc3Cl)c2c1)C(=O)NCCN | 220 nM | 25 nM | 70 nM |  | 4700 nM | 24000 nM |
| NCC[C@H](NC(=O)[C@H](Cc1ccc(F)c(F)c1)NC(=O)Nc1ccc2c(CN3CCCC3)cn(Cc3c(Cl)cccc3Cl)c2c1)C(=O)NCc1ccccn1 | 1100 nM | 330 nM | 190 nM |  | 8400 nM | 19800 nM |
| NCC[C@H](NC(=O)[C@H](Cc1ccc(F)c(F)c1)NC(=O)Nc1ccc2c(CN3CCCC3)cn(Cc3c(Cl)cccc3Cl)c2c1)C(=O)NCCc1ccccc1 | 810 nM | 120 nM | 160 nM |  | 3000 nM | 7600 nM |
| NCC[C@H](NC(=O)[C@H](Cc1ccc(F)c(F)c1)NC(=O)Nc1ccc2c(CN3CCCC3)cn(Cc3c(Cl)cccc3Cl)c2c1)C(=O)NCc1ccco1 | 780 nM | 160 nM | 70 nM | Not Active | 7900 nM |  |
| NCC[C@H](NC(=O)[C@H](Cc1ccc(F)c(F)c1)NC(=O)Nc1ccc2c(CN3CCCC3)cn(Cc3c(Cl)cccc3Cl)c2c1)C(=O)NCc1ccccc1 | 340 nM | 440 nM | 160 nM | Not Active |  |  |
| CSC[C@H](NC(=O)[C@H](Cc1ccc(F)c(F)c1)NC(=O)Nc1ccc2c(CN3CCCC3)cn(Cc3c(Cl)cccc3Cl)c2c1)C(=O)NCCN | 1300 nM | 60 nM | 60 nM |  | 27000 nM | 18600 nM |
| NCCNC(=O)[C@H](Cc1ccncc1)NC(=O)[C@H](Cc1ccccc1F)NC(=O)Nc1ccc2c(CN3CCCC3)cn(Cc3c(Cl)cccc3Cl)c2c1 | 130 nM | 70 nM | 50 nM | Not Active |  |  |
| NCC[C@H](NC(=O)[C@H](Cc1ccc(F)c(F)c1)NC(=O)Nc1ccc2c(CN3CCCC3)cn(Cc3c(Cl)cccc3Cl)c2c1)C(=O)NCc1cccs1 | 800 nM | 230 nM | 160 nM | Not Active | 7000 nM |  |
| COc1ccc(CNC(=O)[C@H](CCN)NC(=O)[C@H](Cc2ccc(F)c(F)c2)NC(=O)Nc2ccc3c(CN4CCCC4)cn(Cc4c(Cl)cccc4Cl)c3c2)cc1 | 700 nM | 480 nM | 100 nM |  | 6700 nM | 6400 nM |
| NCC[C@H](NC(=O)[C@H](Cc1ccc(F)c(F)c1)NC(=O)Nc1cccc2c1c(CN1CCCC1)cn2Cc1c(Cl)cccc1Cl)C(=O)NCCN1CCCC1 | 40000 nM |  | 16000 nM | Not Active |  |  |
| NCC[C@H](NC(=O)[C@H](Cc1ccc(F)c(F)c1)NC(=O)Nc1ccc2c(CN3CCCC3)cn(Cc3c(Cl)cccc3Cl)c2c1)C(=O)NCCc1ccccn1 | 880 nM | 500 nM | 150 nM |  | 6600 nM | 10300 nM |
| NCCCNC(=O)[C@H](Cc1cnc[nH]1)NC(=O)[C@H](Cc1ccc(Cl)cc1)NC(=O)Nc1ccc2c(CN3CCCC3)cn(Cc3c(Cl)cccc3Cl)c2c1 | 410 nM | 130 nM | 70 nM |  | 30000 nM | 18600 nM |
| NCCNC(=O)[C@H](Cc1cccs1)NC(=O)[C@H](Cc1ccc(F)c(F)c1)NC(=O)Nc1ccc2c(CN3CCCC3)cn(Cc3c(Cl)cccc3Cl)c2c1 | 270 nM | 35 nM | 80 nM | Not Active | 16500 nM |  |
| NCCC[C@H](NC(=O)[C@H](Cc1ccc(F)c(F)c1)NC(=O)Nc1ccc2c(CN3CCCC3)cn(Cc3c(Cl)cccc3Cl)c2c1)C(=O)NCCN1CCCC1 | 250 nM | 310 nM | 60 nM |  | 16000 nM | 22000 nM |
| CCNCCNC(=O)[C@H](CCN)NC(=O)[C@H](Cc1ccc(F)c(F)c1)NC(=O)Nc1ccc2c(CN3CCCC3)cn(Cc3c(Cl)cccc3Cl)c2c1 | 410 nM | 90 nM | 130 nM |  |  | 13700 nM |
